Laboratory results: patent publication US20080026417A1, “ASSAYS FOR TRICHOMONAL AND OTHER HYDROLASES” (priority 2002, published 2008)
Peptide text beside a SMILES is read from it. * marks the point of attachment. NH(4-MeO-2-naphthyl) = COc1cc(N*)cc2ccccc12; βNA = c1ccc2cc(N*)ccc2c1; Cbz = O=C(OCc1ccccc1)*

Columns and labels:
trichomonal hydrolases [1] = assay: Experiment 13: hydrolysis of peptide substrates by trichomonal hydrolases at low pH, no vaginal fluid; format: biochemical, Trichomonas vaginalis; design: key: −: No red color produced; +: Clearly visible red color produced; ++: Moderately intense red color produced; +++: Very intense red color produced; conditions: without vaginal fluid; threonine buffer pH 2.4; 2 mM substrate solution; 10 min 25° C.; Fast Garnet
Description: Forty μL of each substrate was pipetted into duplicate wells of a microtiter plate. The plate was covered with tape, placed into a 25° C. incubator, and allowed to warm. A diluted enzyme mixture was prepared by mixing one part (v/v) freshly-thawed trichomonal hydrolase solution to nine parts 2 mM L-cysteine solution. Forty μL of this mixture was added to one well of each pair of duplicate wells. For negative controls, 40 μL of 2 mM L-cysteine was added to the second well in each pair of duplicate wells. The plate was returned to the incubator and incubated for ten minutes. Forty μL of SDS/acetate solution was added to each well, followed by 40 μL of Fast Garnet solution. The intensity of color that developed in each well after five minutes was visually scored using the color scale presented in Table 13.1.

trichomonal hydrolases [2] = assay: Experiment 12: hydrolysis of ZRRR-MNA by trichomonal hydrolases in four buffers; format: biochemical, Trichomonas vaginalis; conditions: for Score: substrate ZRRR-MNA, Fast Red RL, 0-9 scale
Description: Fifty μL of each buffer solution, at pH 2.0, 2.2, 2.4, or 2.6, was pipetted into separate wells of a microtiter plate. Twenty-five μL of 8 mM ZRRR-MNA and 25 μL of 10% trichomonal hydrolase solution were added to each well, and 20 μL were then removed from each well for measurement of final pH. Ten minutes after the mixtures were made, a Dacron swab was inserted into each well to absorb the liquid, then each swab was rubbed on a Fast Red RL film. The intensity of pink color that developed on each swab after five minutes was visually scored in 0.5 unit increments using the 0-9 color scale presented in Table 11.1 of the preceding example.

[3] = pH 2.0 Buffer after mixing with substrate and trichomonal hydrolase solution
[4] = pH 2.2 Buffer after mixing with substrate and trichomonal hydrolase solution
[5] = pH 2.4 Buffer after mixing with substrate and trichomonal hydrolase solution
[6] = pH 2.6 Buffer after mixing with substrate and trichomonal hydrolase solution

Row | Compound | Color Score (trichomonal hydrolases [1]) | also measured
1 | CBZ-Val-Leu-Arg-MNA | + | 
2 | NCC(=O)Nc1ccc2ccccc2c1 [Gly-βNA] | − | 
3 | COc1cc(NC(=O)[C@H](CCCNC(=N)N)NC(=O)[C@H](CCCNC(=N)N)NC(=O)[C@H](CC(C)C)NC(=O)OCc2ccccc2)cc2ccccc12 [CBZ-Leu-Arg-Arg-MNA] | + | 
4 | COc1cc(NC(=O)C(CCCN=C(N)N)NC(=O)CN)cc2ccccc12 (stereo not drawn) [Gly-Arg-MNA] | − | 
5 | NCC(=O)O [Glycine] |  | Score (trichomonal hydrolases [2]; pH 2.0 Buffer (100 mM)): 5.0; Final pH (trichomonal hydrolases [2]; [3]): pH 2.4; Score (trichomonal hydrolases [2]; pH 2.2 Buffer (100 mM)): 6.0; Final pH (trichomonal hydrolases [2]; [4]): pH 2.6; Score (trichomonal hydrolases [2]; pH 2.4 Buffer (100 mM)): 6.0; Final pH (trichomonal hydrolases [2]; [5]): pH 2.7; Score (trichomonal hydrolases [2]; pH 2.6 Buffer (100 mM)): 6.0; Final pH (trichomonal hydrolases [2]; [6]): pH 2.9
6 | NCCCC[C@H](N)C(=O)O [L-lysine] |  | Score (trichomonal hydrolases [2]; pH 2.0 Buffer (100 mM)): 3.0; Final pH (trichomonal hydrolases [2]; [3]): pH 2.3; Score (trichomonal hydrolases [2]; pH 2.2 Buffer (100 mM)): 4.5; Final pH (trichomonal hydrolases [2]; [4]): pH 2.5; Score (trichomonal hydrolases [2]; pH 2.4 Buffer (100 mM)): 5.0; Final pH (trichomonal hydrolases [2]; [5]): pH 2.9; Score (trichomonal hydrolases [2]; pH 2.6 Buffer (100 mM)): 5.5; Final pH (trichomonal hydrolases [2]; [6]): pH 3.0
7 | CC[C@H](C)[C@H](N)C(=O)Nc1ccc2ccccc2c1 [Ile-βNA] | − | 
8 | COc1cc(NC(=O)[C@@H]2CCCN2C(=O)CN)cc2ccccc12 [Gly-Pro-MNA] | − | 
9 | N[C@@H](Cc1c[nH]c2ccccc12)C(=O)Nc1ccc2ccccc2c1 [Trp-βNA] | − | 
10 | NCC(=O)N[C@@H](CCCN=C(N)N)C(=O)Nc1ccc2ccccc2c1 [Gly-Arg-βNA] (H-Gly-Arg-βNA) | − | 
11 | COc1cc(NC(=O)[C@H](CCCN=C(N)N)NC(=O)[C@H](CCCCN)NC(=O)[C@H](CCCCN)NC(=O)[C@@H](NC(=O)OCc2ccccc2)C(C)C)cc2ccccc12 [CBZ-Val-Lys-Lys-Arg-MNA] (Cbz-VKKR-{NH(4-MeO-2-naphthyl)}) | + | 
12 | NCCCC[C@H](NC(=O)OCc1ccccc1)C(=O)Nc1ccc2ccccc2c1 [CBZ-Lys-βNA] | − | 
13 | COc1cc(NC(=O)[C@@H](N)CCCN=C(N)N)cc2ccccc12 [Arg-MNA] | − | 
14 | C[C@H](N)C(=O)N[C@@H](C)C(=O)Nc1ccc2ccccc2c1 [Ala-Ala-βNA] (H-Ala-Ala-βNA) | − | 
15 | NCC(=O)NCC(=O)Nc1ccc2ccccc2c1 [Gly-Gly-βNA] (H-Gly-Gly-βNA) | − | 
16 | COc1cc(NC(=O)C(N)CC(C)C)cc2ccccc12.Cl (stereo not drawn) [Leu-MNA] | − | 
17 | N[C@@H](Cc1ccccc1)C(=O)Nc1ccc2ccccc2c1 [Phe-βNA] | − | 
18 | CC(C)C[C@H](N)C(=O)Nc1ccc2ccccc2c1 [Leu-βNA] | − | 
19 | COc1cc(NC(=O)C(Cc2ccccc2)NC(=O)CN)cc2ccccc12 (stereo not drawn) [Gly-Phe-MNA] | − | 
20 | NC(N)=NCCCC(NC(=O)c1ccccc1)C(=O)Nc1ccc2ccccc2c1 (racemic) [BZ-DL-Arg-βNA] | − | 
21 | C[C@@H](O)[C@H](N)C(=O)O [L-threonine] |  | Score (trichomonal hydrolases [2]; pH 2.0 Buffer (100 mM)): 3.5; Final pH (trichomonal hydrolases [2]; [3]): pH 2.3; Score (trichomonal hydrolases [2]; pH 2.2 Buffer (100 mM)): 6.0; Final pH (trichomonal hydrolases [2]; [4]): pH 2.4; Score (trichomonal hydrolases [2]; pH 2.4 Buffer (100 mM)): 6.5; Final pH (trichomonal hydrolases [2]; [5]): pH 2.7; Score (trichomonal hydrolases [2]; pH 2.6 Buffer (100 mM)): 6.0; Final pH (trichomonal hydrolases [2]; [6]): pH 2.9
22 | O=C(Nc1ccc2ccccc2c1)[C@@H]1C[C@@H](O)CN1 [Hyp-βNA] | − | 
23 | NCC(=O)N[C@@H](Cc1ccccc1)C(=O)Nc1ccc2ccccc2c1 [Gly-Phe-βNA] (H-Gly-Phe-βNA) | − | 
24 | COc1cc(NC(=O)C(CCCNC(=N)N)NC(=O)OCc2ccccc2)cc2ccccc12 (stereo not drawn) [CBZ-Arg-MNA] | − | 
25 | O=C(CNC(=O)OCc1ccccc1)NCC(=O)N[C@@H](Cc1ccccc1)C(=O)Nc1ccc2ccccc2c1 [CBZ-Gly-Gly-Phe-βNA] (Cbz-Gly-Gly-Phe-βNA) | − | 
26 | C[C@H](NC(=O)[C@@H](N)CCCCN)C(=O)Nc1ccc2ccccc2c1 [Lys-Ala-βNA] (H-Lys-Ala-βNA) | − | 
27 | COc1cc(NC(=O)C(CO)NC(=O)C(N)Cc2cnc[nH]2)cc2ccccc12 (stereo not drawn) [His-Ser-MNA] | − | 
